The record followed here is patent US12371454B2, “Cyclic peptide compound having Kras inhibitory action” (priority 2019, dated 2025).

As a reminder, the pIC50 is the negative decadic logarithm of the IC50, by convention in mol/L.

pIC50: −log10 of the molar value. Positions of bridges follow the written chain, without caps; N, C: chain ends. Non-standard residues stand in square brackets, D forms with d. Residues, ends and D or L forms follow the SMILES beside them. *: point of attachment. hPhe(3-Cl-4-CF3) = N[C@@H](CCc1ccc(C(F)(F)F)c(Cl)c1)C(=O)O; hPhe(3-F,4-CF3) = N[C@@H](CCc1ccc(C(F)(F)F)c(F)c1)C(=O)O; NMePhe(4-CF3) = CN[C@@H](Cc1ccc(C(F)(F)F)cc1)C(=O)O; NMeNle(6-CHF2) = CN[C@@H](CCCCC(F)F)C(=O)O; NMeAla(cPent) = CN[C@@H](CC1CCCC1)C(=O)O; NMeGly(cPent) = CN[C@H](C(=O)O)C1CCCC1; Phe(3-I) = N[C@@H](Cc1cccc(I)c1)C(=O)O; NMeCha = CN[C@@H](CC1CCCCC1)C(=O)O; NMeAllylGly = C=CC[C@H](NC)C(=O)O; NMeChg = CN[C@H](C(=O)O)C1CCCCC1; dNMeF = CN[C@H](Cc1ccccc1)C(=O)O; αMeF = C[C@](N)(Cc1ccccc1)C(=O)O; NMeD = CN[C@@H](CC(=O)O)C(=O)O; NMeL = CN[C@@H](CC(C)C)C(=O)O; Chg = N[C@H](C(=O)O)C1CCCCC1; dNMeAbu = CC[C@@H](NC)C(=O)O; hLeu = CC(C)CC[C@H](N)C(=O)O; NMeV = CN[C@H](C(=O)O)C(C)C; d(β3hA) = C[C@@H](N)CC(=O)O; dNMeS = CN[C@H](CO)C(=O)O; NMeA = CN[C@@H](C)C(=O)O; NMeAib = CNC(C)(C)C(=O)O; Nle = CCCC[C@H](N)C(=O)O; Piperidide = C1CCN(*)CC1; Pyrrolidide = C1CCN(*)C1; Ac5c = NC1(C(=O)O)CCCC1; Aze = O=C(O)[C@@H]1CCN1; Aib = CC(C)(N)C(=O)O; Isopentyl = CC(C)CC*; Sar = CNCC(=O)O

In the test the target is T1, Kras and SOS1 (biotin-tagged human Kras loaded with GDP, His-tagged human SOS1) (Homo sapiens, UniProt P01116, G12D).
T1 construct: made in house; host or cells: E. coli (stated for Kras only)
T1 sequence (P01116 1-188 isoform P01116-2 G12D): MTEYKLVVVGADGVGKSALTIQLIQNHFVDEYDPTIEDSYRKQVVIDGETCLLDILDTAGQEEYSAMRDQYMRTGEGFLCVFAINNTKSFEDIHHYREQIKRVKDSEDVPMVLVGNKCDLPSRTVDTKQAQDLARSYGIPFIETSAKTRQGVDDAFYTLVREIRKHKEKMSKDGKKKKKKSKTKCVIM
Briefly: Protein-protein interaction inhibition between Kras and SOS1 (KrasGl2D-SOS PPI) using AlphaScreen. It is filed as binding. To be noted: AlphaScreen; biotin-tagged human Kras loaded with GDP, His-tagged human SOS1; read-out: KRAS G12D-SOS PPI IC50. A digest of the protocol:
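Donor beads (nickel) hold His-SOS1; acceptor beads (streptavidin) hold biotin-Kras bound to GDP. Signal measured at 520-620 nm following 680 nm excitation.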
For `CCCC[C@@H]1NC(=O)[C@H](Cc2cccc(I)c2)NC(=O)CN(C)C(=O)[C@H](CC2CCCC2)N(C)C(=O)[C@@H]2CCN2C(=O)[C@H](C)N(C)C(=O)[C@H]([C@@H](C)CC)NC(=O)[C@H](CC(C)C)N(C)C(=O)C[C@@H](C(=O)N2CCCCC2)N(C)C(=O)[C@H](CC(C)C)NC(=O)C(C)(C)N(C)C1=O` [Compound 1432] ([NMeL]I[NMeA][Aze][NMeAla(cPent)][Sar][Phe(3-I)][Nle][NMeAib]L[NMeD]-Piperidide; lactam N-11), the pIC50 was 6.59.
Turning to `CCCC[C@@H]1NC(=O)[C@H](Cc2cccc(I)c2)NC(=O)CN(C)C(=O)[C@H](Cc2ccc(C(F)(F)F)cc2)N(C)C(=O)CN(C)C(=O)CN(C)C(=O)[C@H]([C@@H](C)CC)NC(=O)[C@H](CC(C)C)N(C)C(=O)C[C@@H](C(=O)N2CCCCC2)N(C)C(=O)[C@H](CCC(C)C)NC(=O)C(C)(C)N(C)C1=O` [Compound 1433] ([NMeL]I[Sar][Sar][NMePhe(4-CF3)][Sar][Phe(3-I)][Nle][NMeAib][hLeu][NMeD]-Piperidide; lactam N-11), the pIC50 is 7.54.
For `CC[C@H](C)[C@@H]1NC(=O)[C@H](CC(C)C)N(C)C(=O)C[C@@H](C(=O)N2CCCCC2)N(C)C(=O)[C@H](C2CCCC2)N(C)C(=O)C2(CCCC2)NC(=O)[C@@H](Cc2ccccc2)N(C)C(=O)[C@H](CCc2ccc(C(F)(F)F)c(Cl)c2)NC(=O)CN(C)C(=O)[C@H](CC2CCCCC2)N(C)C(=O)[C@@H]2CCN2C(=O)[C@H](C)N(C)C1=O` [Compound 1434] ([NMeL]I[NMeA][Aze][NMeCha][Sar][hPhe(3-Cl-4-CF3)][dNMeF][Ac5c][NMeGly(cPent)][NMeD]-Piperidide; lactam N-11), the pIC50 was 6.82.
The value for `CC[C@H](C)[C@@H]1NC(=O)[C@H](CC(C)C)N(C)C(=O)C[C@@H](C(=O)N2CCCCC2)N(C)C(=O)[C@H](C(C)C)N(C)C(=O)C2(CCCC2)NC(=O)[C@@H](COCCC(C)C)N(C)C(=O)[C@H](CCc2ccc(C(F)(F)F)c(Cl)c2)NC(=O)CN(C)C(=O)[C@H](CC2CCCCC2)N(C)C(=O)[C@@H]2CCN2C(=O)[C@H](C)N(C)C1=O` [Compound 1437] ([NMeL]I[NMeA][Aze][NMeCha][Sar][hPhe(3-Cl-4-CF3)][dNMeS](Isopentyl)[Ac5c][NMeV][NMeD]-Piperidide; lactam N-11) was 7.09; that for `CC[C@@H]1C(=O)NC2(CCCC2)C(=O)N(C)[C@@H](C(C)C)C(=O)N(C)[C@H](C(=O)N2CCCCC2)CC(=O)N(C)[C@@H](CC(C)C)C(=O)N[C@@H]([C@@H](C)CC)C(=O)N(C)[C@@H](C)C(=O)N2CC[C@H]2C(=O)N(C)[C@@H](CC2CCCCC2)C(=O)N(C)CC(=O)N[C@@H](CCc2ccc(C(F)(F)F)c(Cl)c2)C(=O)N1C` [Compound 1438] ([NMeL]I[NMeA][Aze][NMeCha][Sar][hPhe(3-Cl-4-CF3)][dNMeAbu][Ac5c][NMeV][NMeD]-Piperidide; lactam N-11) was 7.44; that for `CC[C@H](C)[C@@H]1NC(=O)[C@H](CC(C)C)N(C)C(=O)C[C@@H](C(=O)N2CCCCC2)N(C)C(=O)[C@H](C2CCCC2)N(C)C(=O)C2(CCCC2)NC(=O)[C@@H](COCCC(C)C)N(C)C(=O)[C@H](CCc2ccc(C(F)(F)F)c(Cl)c2)NC(=O)CN(C)C(=O)[C@H](CC2CCCCC2)N(C)C(=O)CN(C)C(=O)CN(C)C1=O` [Compound 1440] ([NMeL]I[Sar][Sar][NMeCha][Sar][hPhe(3-Cl-4-CF3)][dNMeS](Isopentyl)[Ac5c][NMeGly(cPent)][NMeD]-Piperidide; lactam N-11) was 7.80.
In the case of `CC[C@@H]1C(=O)NC2(CCCC2)C(=O)N(C)[C@@H](C2CCCC2)C(=O)N(C)[C@H](C(=O)N2CCCCC2)CC(=O)N(C)[C@@H](CC(C)C)C(=O)N[C@@H]([C@@H](C)CC)C(=O)N(C)[C@@H](C)C(=O)N2CC[C@H]2C(=O)N(C)[C@@H](CC2CCCCC2)C(=O)N(C)CC(=O)N[C@@H](CCc2ccc(C(F)(F)F)c(Cl)c2)C(=O)N1C` [Compound 1441] ([NMeL]I[NMeA][Aze][NMeCha][Sar][hPhe(3-Cl-4-CF3)][dNMeAbu][Ac5c][NMeGly(cPent)][NMeD]-Piperidide; lactam N-11) it was 8.19.
Turning to `CC[C@H](C)[C@@H]1NC(=O)[C@H](CC(C)C)N(C)C(=O)C[C@@H](C(=O)N2CCCCC2)N(C)C(=O)[C@H](C(C)C)N(C)C(=O)C2(CCCC2)NC(=O)[C@@H](Cc2ccccc2)N(C)C(=O)[C@H](CCc2ccc(C(F)(F)F)c(Cl)c2)NC(=O)CN(C)C(=O)[C@H](CC2CCCCC2)N(C)C(=O)[C@@H]2CCN2C(=O)[C@H](C)N(C)C1=O` [Compound 1442] ([NMeL]I[NMeA][Aze][NMeCha][Sar][hPhe(3-Cl-4-CF3)][dNMeF][Ac5c][NMeV][NMeD]-Piperidide; lactam N-11), the pIC50 was 6.55.
As for `CC[C@H](C)[C@@H]1NC(=O)[C@H](CC(C)C)N(C)C(=O)C[C@@H](C(=O)N2CCCCC2)N(C)C(=O)[C@H](C2CCCC2)N(C)C(=O)C2(CCCC2)NC(=O)[C@@H](COCCC(C)C)N(C)C(=O)[C@H](CCc2ccc(C(F)(F)F)c(Cl)c2)NC(=O)CN(C)C(=O)[C@H](CC2CCCCC2)N(C)C(=O)[C@@H]2CCN2C(=O)[C@H](C)N(C)C1=O` [Compound 1443] ([NMeL]I[NMeA][Aze][NMeCha][Sar][hPhe(3-Cl-4-CF3)][dNMeS](Isopentyl)[Ac5c][NMeGly(cPent)][NMeD]-Piperidide; lactam N-11), the pIC50 is 7.64.
For `CC[C@H](C)[C@@H]1NC(=O)[C@H](CC(C)C)N(C)C(=O)C[C@@H](C(=O)N2CCCCC2)N(C)C(=O)[C@H](C(C)C)N(C)C(=O)C2(CCCC2)NC(=O)[C@@H](CO)N(C)C(=O)[C@H](CCc2ccc(C(F)(F)F)c(Cl)c2)NC(=O)CN(C)C(=O)[C@H](CC2CCCCC2)N(C)C(=O)[C@@H]2CCN2C(=O)[C@H](C)N(C)C1=O` [Compound 1444] ([NMeL]I[NMeA][Aze][NMeCha][Sar][hPhe(3-Cl-4-CF3)][dNMeS][Ac5c][NMeV][NMeD]-Piperidide; lactam N-11), the pIC50 was 8.06.
For the compound `C=CC[C@H]1C(=O)NC2(CCCC2)C(=O)N(C)[C@@H](C(C)C)C(=O)N(C)[C@H](C(=O)N2CCCCC2)CC(=O)N(C)[C@@H](CC(C)C)C(=O)N[C@@H]([C@@H](C)CC)C(=O)N(C)[C@@H](C)C(=O)N2CC[C@H]2C(=O)N(C)[C@@H](CC2CCCCC2)C(=O)N(C)CC(=O)N[C@@H](CCc2ccc(C(F)(F)F)c(Cl)c2)C(=O)N1C` [Compound 1447] ([NMeL]I[NMeA][Aze][NMeCha][Sar][hPhe(3-Cl-4-CF3)][NMeAllylGly][Ac5c][NMeV][NMeD]-Piperidide; lactam N-11), the negative logarithm of the IC50 (pIC50) was 7.00.
In the case of `C=CC[C@H]1C(=O)NC2(CCCC2)C(=O)N(C)[C@@H](C2CCCCC2)C(=O)N(C)[C@H](C(=O)N2CCCCC2)CC(=O)N(C)[C@@H](CC(C)C)C(=O)N[C@@H]([C@@H](C)CC)C(=O)N(C)CC(=O)N(C)CC(=O)N(C)[C@@H](CC2CCCCC2)C(=O)N(C)CC(=O)N[C@@H](CCc2ccc(C(F)(F)F)c(Cl)c2)C(=O)N1C` [Compound 1449] ([NMeL]I[Sar][Sar][NMeCha][Sar][hPhe(3-Cl-4-CF3)][NMeAllylGly][Ac5c][NMeChg][NMeD]-Piperidide; lactam N-11) it was 7.85.
As to `CC(C)C[C@H]1C(=O)N[C@@H](C2CCCCC2)C(=O)N(C)CC(=O)N(C)CC(=O)N(C)[C@@H](CCCCC(F)F)C(=O)N(C)CC(=O)N[C@@H](CCc2ccc(C(F)(F)F)c(F)c2)C(=O)N(C)[C@@H](CC(C)C)C(=O)N[C@@](C)(Cc2ccccc2)C(=O)N(C)[C@@H](CC(C)C)C(=O)N[C@H](C(=O)N2CCCC2)CC(=O)N1C` [Compound 1450] ([NMeL][Chg][Sar][Sar][NMeNle(6-CHF2)][Sar][hPhe(3-F,4-CF3)][NMeL][αMeF][NMeL]D-Pyrrolidide; lactam N-11), the negative-log IC50 (pIC50) was 6.66.
Take `CC(C)C[C@H]1C(=O)N[C@@H](C(C)C)C(=O)N(C)CC(=O)N(C)CC(=O)N(C)[C@@H](CC2CCCCC2)C(=O)N(C)CC(=O)N[C@@H](CCc2ccc(C(F)(F)F)c(Cl)c2)C(=O)N2CCC[C@H]2C(=O)NC2(CCCC2)C(=O)N(C)[C@@H](CC(C)C)C(=O)N[C@H](C)CC(=O)N1C` [Compound 1452] (cyclo([Ac5c][NMeL][d(β3hA)][NMeL]V[Sar][Sar][NMeCha][Sar][hPhe(3-Cl-4-CF3)]P)): the pIC50 is 7.42.
In the case of `CC(C)C[C@H]1C(=O)N[C@@H](C2CCCCC2)C(=O)N(C)CC(=O)N(C)CC(=O)N(C)[C@@H](CCCCC(F)F)C(=O)N(C)CC(=O)N[C@@H](CCc2ccc(C(F)(F)F)c(F)c2)C(=O)N(C)[C@@H](CC(C)C)C(=O)NC(C)(C)C(=O)N(C)[C@@H](CC(C)C)C(=O)N[C@H](C(=O)N2CCCC2)CC(=O)N1C` [Compound 1453] ([NMeL][Chg][Sar][Sar][NMeNle(6-CHF2)][Sar][hPhe(3-F,4-CF3)][NMeL][Aib][NMeL]D-Pyrrolidide; lactam N-11) it was 6.96.
As to `CC[C@H](C)[C@@H]1NC(=O)[C@H](CC(C)C)N(C)C(=O)C[C@@H](C(=O)N2CCCC2)NC(=O)[C@H](CC(C)C)N(C)C(=O)C(C)(C)NC(=O)[C@H](CC(C)C)N(C)C(=O)[C@H](CCc2ccc(C(F)(F)F)c(F)c2)NC(=O)CN(C)C(=O)[C@H](CCCCC(F)F)N(C)C(=O)CN(C)C(=O)CN(C)C1=O` [Compound 1455] ([NMeL]I[Sar][Sar][NMeNle(6-CHF2)][Sar][hPhe(3-F,4-CF3)][NMeL][Aib][NMeL]D-Pyrrolidide; lactam N-11), the pIC50 is 7.52.
With `CC[C@H](C)[C@@H]1NC(=O)[C@H](CC(C)C)N(C)C(=O)C[C@@H](C(=O)N2CCCCC2)N(C)C(=O)[C@H](CC(C)C)N(C)C(=O)C(C)(C)NC(=O)[C@H](CC(C)C)N(C)C(=O)[C@H](CCc2ccc(C(F)(F)F)c(F)c2)NC(=O)CN(C)C(=O)[C@H](CCCCC(F)F)N(C)C(=O)CN(C)C(=O)CN(C)C1=O` [Compound 1456] ([NMeL]I[Sar][Sar][NMeNle(6-CHF2)][Sar][hPhe(3-F,4-CF3)][NMeL][Aib][NMeL][NMeD]-Piperidide; lactam N-11), the pIC50 is 7.92.
